Assay results reported in ChEMBL document CHEMBL1159160, “L-162,389: a potent orally active angiotensin II receptor antagonist with balanced affinity to both AT1 and AT2 receptor subtypes” (Bioorg Med Chem Lett, 1996).

Key:
[1] = biological target: T1, Type-2 angiotensin II receptor (Rattus norvegicus, UniProt P35351); assay: Compound was evaluated for inhibition of 125I[Sar1,Ile8] aII binding to rat midbrain membrane preparation Angiotensin II receptor, type 2; assay type: tissue-based
T1 sequence (P35351 whole entry): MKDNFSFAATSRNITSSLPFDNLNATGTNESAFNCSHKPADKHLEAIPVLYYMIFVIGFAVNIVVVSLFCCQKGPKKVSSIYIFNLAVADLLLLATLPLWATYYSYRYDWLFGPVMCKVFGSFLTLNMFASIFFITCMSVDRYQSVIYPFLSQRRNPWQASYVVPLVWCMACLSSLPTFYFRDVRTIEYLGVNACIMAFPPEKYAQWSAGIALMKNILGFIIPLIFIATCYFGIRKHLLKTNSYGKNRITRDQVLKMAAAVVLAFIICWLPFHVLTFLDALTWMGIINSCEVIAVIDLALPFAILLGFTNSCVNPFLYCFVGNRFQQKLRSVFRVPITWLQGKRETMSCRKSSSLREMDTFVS

[2] = biological target: T2, Type-1 angiotensin II receptor (Oryctolagus cuniculus, UniProt P34976); assay: Compound was evaluated for inhibition of 125I[Sar1,Ile8] all binding to rabbit aorta Angiotensin II receptor, type 1; assay type: tissue-based
T2 sequence (P34976 whole entry): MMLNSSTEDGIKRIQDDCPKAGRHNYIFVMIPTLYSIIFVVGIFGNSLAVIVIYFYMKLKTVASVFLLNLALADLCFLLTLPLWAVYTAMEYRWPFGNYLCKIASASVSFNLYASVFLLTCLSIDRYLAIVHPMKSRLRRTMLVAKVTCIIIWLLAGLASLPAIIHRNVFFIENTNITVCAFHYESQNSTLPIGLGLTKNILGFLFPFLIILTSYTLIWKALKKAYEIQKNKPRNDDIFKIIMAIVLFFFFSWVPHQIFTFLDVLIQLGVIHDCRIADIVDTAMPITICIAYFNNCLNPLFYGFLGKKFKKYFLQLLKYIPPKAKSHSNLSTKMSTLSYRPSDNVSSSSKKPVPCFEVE

SMILES | IC50 [1] | IC50 [2]
CCCCOC(=O)NS(=O)(=O)c1ccc(C)cc1-c1ccc(Cn2c(CC)nc3c(C)cc(C)nc32)cc1 | 87 nM | 0.2 nM
CCCCOC(=O)NS(=O)(=O)c1ccccc1-c1ccc(Cn2c(CC)nc3c(C)cc(C)nc32)cc1 | 95 nM | 0.2 nM
CCCCOC(=O)NS(=O)(=O)c1ccc(CCC)cc1-c1ccc(Cn2c(CC)nc3c(C)cc(C)nc32)cc1 | 3.8 nM | 2.1 nM
CCCCOC(=O)NS(=O)(=O)c1ccc(CC)cc1-c1ccc(Cn2c(CC)nc3c(C)cc(C)nc32)cc1 | 37 nM | 1.4 nM
